Source: the NIST ThermoML archive (doi:10.1021/je025630q)

Experiment: compressibility factor (dimensionless); xn = mol fraction of the nth substance listed
Settings: Gas, Burnett expansion method

CF [fluoromethane] + O=C=O
Settings | compressibility factor
323.15 K, 1023.9 kPa, x2 = 0.619 | 0.9523
323.15 K, 1109.6 kPa, x2 = 0.189 | 0.9349
323.15 K, 1394.9 kPa, x2 = 0.378 | 0.9259
323.15 K, 1451.1 kPa, x2 = 0.791 | 0.9369
323.15 K, 1495.6 kPa, x2 = 0.619 | 0.9293
323.15 K, 1606.1 kPa, x2 = 0.189 | 0.904
323.15 K, 2009.1 kPa, x2 = 0.378 | 0.8909
323.15 K, 2102.7 kPa, x2 = 0.791 | 0.907
323.15 K, 2158.3 kPa, x2 = 0.619 | 0.8959
323.15 K, 2286.6 kPa, x2 = 0.189 | 0.8598
323.15 K, 2838.8 kPa, x2 = 0.378 | 0.8409
323.15 K, 2997.8 kPa, x2 = 0.791 | 0.8639
323.15 K, 3058.6 kPa, x2 = 0.619 | 0.8482
323.15 K, 3176.6 kPa, x2 = 0.189 | 0.798
323.15 K, 3899.6 kPa, x2 = 0.378 | 0.7717
323.15 K, 4170 kPa, x2 = 0.791 | 0.8027
323.15 K, 4217.2 kPa, x2 = 0.619 | 0.7813
323.15 K, 4257.2 kPa, x2 = 0.189 | 0.7144
323.15 K, 5138.4 kPa, x2 = 0.378 | 0.6793
323.15 K, 5587.6 kPa, x2 = 0.619 | 0.6915
323.15 K, 5596 kPa, x2 = 0.791 | 0.7197
333.15 K, 120.3 kPa, x2 = 0.392 | 0.9924
333.15 K, 128.5 kPa, x2 = 0.793 | 0.9965
333.15 K, 130.5 kPa, x2 = 0.572 | 0.9947
333.15 K, 141.4 kPa, x2 = 0.219 | 0.9909
333.15 K, 179.8 kPa, x2 = 0.392 | 0.9911
333.15 K, 191.9 kPa, x2 = 0.793 | 0.9938
333.15 K, 194.8 kPa, x2 = 0.572 | 0.9922
333.15 K, 211.2 kPa, x2 = 0.219 | 0.9886
333.15 K, 268.3 kPa, x2 = 0.392 | 0.9879
333.15 K, 286.2 kPa, x2 = 0.793 | 0.9901
333.15 K, 290.4 kPa, x2 = 0.572 | 0.9884
333.15 K, 314.8 kPa, x2 = 0.219 | 0.9843
333.15 K, 399.3 kPa, x2 = 0.392 | 0.9824
333.15 K, 426 kPa, x2 = 0.793 | 0.9846
333.15 K, 432.2 kPa, x2 = 0.572 | 0.9824
333.15 K, 467.7 kPa, x2 = 0.219 | 0.977
333.15 K, 592.5 kPa, x2 = 0.392 | 0.9737
333.15 K, 632.5 kPa, x2 = 0.793 | 0.9765
333.15 K, 641.1 kPa, x2 = 0.572 | 0.9736
333.15 K, 692.1 kPa, x2 = 0.219 | 0.9657
333.15 K, 874.8 kPa, x2 = 0.392 | 0.9605
333.15 K, 935.3 kPa, x2 = 0.793 | 0.9647
333.15 K, 946.8 kPa, x2 = 0.572 | 0.9606
333.15 K, 1017.9 kPa, x2 = 0.219 | 0.9489
333.15 K, 1282.7 kPa, x2 = 0.392 | 0.9408
333.15 K, 1375.1 kPa, x2 = 0.793 | 0.9475
333.15 K, 1389.2 kPa, x2 = 0.572 | 0.9416
333.15 K, 1484.9 kPa, x2 = 0.219 | 0.9247
333.15 K, 1863.4 kPa, x2 = 0.392 | 0.913
333.15 K, 2004.2 kPa, x2 = 0.793 | 0.9226
333.15 K, 2018.3 kPa, x2 = 0.572 | 0.9138
333.15 K, 2137.2 kPa, x2 = 0.219 | 0.8891
333.15 K, 2666.7 kPa, x2 = 0.392 | 0.8729
333.15 K, 2882 kPa, x2 = 0.793 | 0.8863
333.15 K, 2888.7 kPa, x2 = 0.572 | 0.8738
333.15 K, 3016.4 kPa, x2 = 0.219 | 0.8383
333.15 K, 3728.6 kPa, x2 = 0.392 | 0.8154
333.15 K, 4045.3 kPa, x2 = 0.572 | 0.8174
333.15 K, 4063.7 kPa, x2 = 0.793 | 0.8348
333.15 K, 4136 kPa, x2 = 0.219 | 0.7679
333.15 K, 5046.6 kPa, x2 = 0.392 | 0.7372
333.15 K, 5488.2 kPa, x2 = 0.572 | 0.7409
333.15 K, 5565.8 kPa, x2 = 0.793 | 0.7639
343.15 K, 125.5 kPa, x2 = 0.402 | 0.9971
343.15 K, 125.6 kPa, x2 = 0.787 | 0.996
343.15 K, 128.3 kPa, x2 = 0.591 | 0.9967
343.15 K, 135.4 kPa, x2 = 0.18 | 0.9953
343.15 K, 187.3 kPa, x2 = 0.402 | 0.9939
343.15 K, 187.7 kPa, x2 = 0.787 | 0.9941
343.15 K, 191.6 kPa, x2 = 0.591 | 0.9938
343.15 K, 202 kPa, x2 = 0.18 | 0.9914
343.15 K, 279.1 kPa, x2 = 0.402 | 0.9895
343.15 K, 280.1 kPa, x2 = 0.787 | 0.9911
343.15 K, 285.7 kPa, x2 = 0.591 | 0.9901
343.15 K, 300.8 kPa, x2 = 0.18 | 0.9865
343.15 K, 415.1 kPa, x2 = 0.402 | 0.9834
343.15 K, 417.3 kPa, x2 = 0.787 | 0.9864
343.15 K, 425.2 kPa, x2 = 0.591 | 0.9845
343.15 K, 447 kPa, x2 = 0.18 | 0.9794
343.15 K, 615.9 kPa, x2 = 0.402 | 0.9747
343.15 K, 620.2 kPa, x2 = 0.787 | 0.9794
343.15 K, 631.2 kPa, x2 = 0.591 | 0.9764
343.15 K, 662 kPa, x2 = 0.18 | 0.969
343.15 K, 910 kPa, x2 = 0.402 | 0.962
343.15 K, 918.6 kPa, x2 = 0.787 | 0.9691
343.15 K, 933.5 kPa, x2 = 0.591 | 0.9646
343.15 K, 975.3 kPa, x2 = 0.18 | 0.9536
343.15 K, 1336.1 kPa, x2 = 0.402 | 0.9436
343.15 K, 1353.5 kPa, x2 = 0.787 | 0.9539
343.15 K, 1372.4 kPa, x2 = 0.591 | 0.9474
343.15 K, 1426.1 kPa, x2 = 0.18 | 0.9315
343.15 K, 1943.4 kPa, x2 = 0.402 | 0.9169
343.15 K, 1979.2 kPa, x2 = 0.787 | 0.9318
343.15 K, 1999.6 kPa, x2 = 0.591 | 0.9222
343.15 K, 2061.5 kPa, x2 = 0.18 | 0.8996
343.15 K, 2787.5 kPa, x2 = 0.402 | 0.8786
343.15 K, 2861 kPa, x2 = 0.787 | 0.8998
343.15 K, 2876.3 kPa, x2 = 0.591 | 0.8861
343.15 K, 2930.2 kPa, x2 = 0.18 | 0.8542
343.15 K, 3914.8 kPa, x2 = 0.402 | 0.8243
343.15 K, 4057.2 kPa, x2 = 0.591 | 0.835
343.15 K, 4064.7 kPa, x2 = 0.18 | 0.7916
343.15 K, 4064.8 kPa, x2 = 0.787 | 0.8541
343.15 K, 5337.5 kPa, x2 = 0.402 | 0.7508
343.15 K, 5565.1 kPa, x2 = 0.591 | 0.7652
343.15 K, 5631.7 kPa, x2 = 0.787 | 0.7905
